Test results reported in US6436423B1, “Product and method for improving avian health” (Arkion Life Sciences, priority 1998, dated 2002).

What was measured:
[1] = tested on: Ross x Hubbard HyY broiler chicks; assay: Example 1: efficacy of AQ applied to the litter used in broiler chicken houses (42 day performance); format: in vivo; conditions: AQ applied to the litter at the 1.0× dose; full dose and half dose of coccidiostat in the feed
Text: A total of 3456 one-day-old straight run Ross x Hubbard HyY broiler chicks was used in the experiment. There were 6 treatments with 8 replicates per treatment and 72 birds per replicate. The individual pen was the experimental unit. The experimental treatments used follows:
1. Negative Control =No coccidiostat or growth promoting antibiotics and no litter treatment
2. Positive Control=BioCox® (full dose)+BMD®+3-Nitro and no litter treatment
3. BioCox® (full dose)+BMD®+3-Nitro+0.5× litter treatment*
4. BioCox® (full dose)+BMD®+3-Nitro+1.0× AQ litter treatment**
5. BioCox® (half dose)+BMD®+3-Nitro+0.5× AQ litter treatment
6. BioCox® (half dose)+BMD®+3-Nitro+1.0× AQ litter treatment
*0.5× Solution of AQ−⅛ Gallon/44,000sqft
**1.0× Solution of AQ−¼ Gallon/44,000sqfi

[2] = tested on: Ross x Hubbard HyY broiler chicks; assay: Example 2: efficacy of AQ applied to the litter used in broiler chicken houses, dose titration (42 day performance); format: in vivo
Text: The term “weight adjusted feed efficiency” is based upon a feed efficiency corrected to a standard weight called the “weight adjusted feed efficiency” (WAFE). Feed efficiency can be adjusted to a standard weight of 2.00 kg. For every 31.78 grams difference in weight, the feed efficiency can be adjusted by 0.01. For example:
(§1) A total of 6912 one-day-old straight run Ross x Hubbard HyY broiler chicks was used in the experiment. There were 12 treatments with 8 replicates per treatment and 72 birds per replicate. The individual pen was the experimental unit. The experimental treatments used were as follows:
1. Negative Control—No coccidiostat or growth promoting antibiotics—No litter treatment
4. No litter treatment—BioCox (half dose)
3. 4× AQ litter treatment—No feed additives
4. 4× AQ litter treatment—BioCox (half dose)
5. 10.0× AQ litter treatment—No feed additives
6. 4.0× AQ litter treatment+BioCox (low dose)+BMD+3-Nitro
7. 4.0× AQ litter treatment BioCox (low dose)+BMD+3-Nitro
8. 10× AQ litter treatment−BioCox (half dose)
9. Positive Control BioCox (full dose)+BMD+3-Nitro
10. 4× AQ litter treatment−BioCox (full dose)+BMD+3-Nitro
11. 10× AQ litter treatment−BioCox (half dose)+BMD+3-Nitro
12. 10× AQ litter treatment−BioCox (full dose)+BMD+3-Nitro.
(§2) 4× Solution of AQ−1 Gallon/44,000sqft×4.2 ml per 48sqft (one pen)

coccidia = assay: Example 2: intestinal lesion scores (intestinal coccidia score); format: in vivo, broiler chicken; conditions: 14 day data; 10× or 4× AQ dose on litter combined with typically used poultry diets
Experimental: as §1, §2
This means that the lesion score difference was greater than 1 unit (scoring range of 0-4).

[3] = 10× AQ dose on litter combined with typically used poultry diets
[4] = 10× AQ dose on litter, diet contained no coccidiostat or antibiotic feed additive

## O=C1c2ccccc2C(=O)c2ccccc21 [AQ, anthraquinone]
[1]
  effect on feed efficiency (conclusion): improvement in feed efficiency
[2]; [3]
  feed efficiency compared with the positive control (conclusion): significantly improved (p<0.05) over the positive control
  weight gain compared with the positive control (conclusion): significantly improved (p<0.05) over the positive control
[2]; [4]
  feed efficiency compared with the negative control (conclusion): significant difference between this treatment and the negative control
  feed efficiency compared with the positive control (conclusion): no difference from the positive control
[2]; dose titration study
  effect of addition of AQ to the litter on weight gain (conclusion): tends to improve weight gain numerically
coccidia
  intestinal coccidia score compared with the positive and negative control (conclusion): improved significantly (p<0.05) over the positive and negative control
